In ChEMBL document CHEMBL2407027, “(3R,4S,5R,6R,7S)-3,4,5,7-Tetrahydroxyconidine, an azetidine analogue of 6,7-diepicastanospermine and a conformationally constrained d-deoxyaltronojirimycin, from l-arabinose” (Bioorg Med Chem, 2013) one finds IC50 and inhibition data, which are given here for six molecules.

Structures are written as SMILES.

Assay [1] is described as follows: Inhibition of Aspergillus niger amyloglucosidase.
For assay [2], the system named is Aspergillus niger. Nature of the assay: Inhibition of Aspergillus niger beta-glucosidase at 1000 uM.
The species entered for assay [3] is Rattus norvegicus. Nature of the assay: Inhibition of rat intestinal beta-galactosidase at 1000 uM.
A further assay addresses T1, Alpha-glucosidase (Aspergillus niger, UniProt P56526).
T1 sequence (P56526 whole entry): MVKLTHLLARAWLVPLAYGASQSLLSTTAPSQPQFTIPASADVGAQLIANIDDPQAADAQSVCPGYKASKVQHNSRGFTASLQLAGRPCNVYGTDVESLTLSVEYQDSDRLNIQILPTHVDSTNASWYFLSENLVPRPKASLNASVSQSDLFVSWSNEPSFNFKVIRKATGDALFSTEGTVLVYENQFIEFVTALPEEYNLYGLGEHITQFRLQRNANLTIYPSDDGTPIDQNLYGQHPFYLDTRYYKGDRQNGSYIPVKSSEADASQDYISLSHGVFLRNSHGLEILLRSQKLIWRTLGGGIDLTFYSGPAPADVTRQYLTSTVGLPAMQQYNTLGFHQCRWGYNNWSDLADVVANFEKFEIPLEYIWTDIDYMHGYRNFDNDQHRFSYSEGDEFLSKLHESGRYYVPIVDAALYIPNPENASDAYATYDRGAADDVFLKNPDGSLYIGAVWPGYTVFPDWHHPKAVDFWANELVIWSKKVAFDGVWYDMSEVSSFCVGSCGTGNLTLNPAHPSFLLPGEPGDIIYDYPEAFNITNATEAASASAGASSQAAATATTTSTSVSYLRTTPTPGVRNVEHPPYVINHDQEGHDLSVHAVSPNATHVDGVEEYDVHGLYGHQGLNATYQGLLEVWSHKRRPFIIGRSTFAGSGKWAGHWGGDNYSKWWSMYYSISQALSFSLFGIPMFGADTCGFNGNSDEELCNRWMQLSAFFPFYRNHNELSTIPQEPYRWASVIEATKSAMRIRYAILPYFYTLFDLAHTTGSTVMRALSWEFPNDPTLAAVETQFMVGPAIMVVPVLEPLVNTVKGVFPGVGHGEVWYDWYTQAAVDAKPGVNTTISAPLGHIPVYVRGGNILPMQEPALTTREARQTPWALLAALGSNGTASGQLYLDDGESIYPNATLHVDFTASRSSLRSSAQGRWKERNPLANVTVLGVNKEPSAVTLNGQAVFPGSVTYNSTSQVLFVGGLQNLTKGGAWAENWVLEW
The assay can be described thus: Inhibition of Aspergillus niger alpha-glucosidase.

A further assay is filed under the species Sus scrofa. Nature of the assay: Inhibition of porcine kidney alpha,alpha-trehalase at 1000 uM.
Assay [4] concerns the target T2, Glucosylceramidase (Bos taurus) (UniProt Q2KHZ8).
T2 sequence (whole entry): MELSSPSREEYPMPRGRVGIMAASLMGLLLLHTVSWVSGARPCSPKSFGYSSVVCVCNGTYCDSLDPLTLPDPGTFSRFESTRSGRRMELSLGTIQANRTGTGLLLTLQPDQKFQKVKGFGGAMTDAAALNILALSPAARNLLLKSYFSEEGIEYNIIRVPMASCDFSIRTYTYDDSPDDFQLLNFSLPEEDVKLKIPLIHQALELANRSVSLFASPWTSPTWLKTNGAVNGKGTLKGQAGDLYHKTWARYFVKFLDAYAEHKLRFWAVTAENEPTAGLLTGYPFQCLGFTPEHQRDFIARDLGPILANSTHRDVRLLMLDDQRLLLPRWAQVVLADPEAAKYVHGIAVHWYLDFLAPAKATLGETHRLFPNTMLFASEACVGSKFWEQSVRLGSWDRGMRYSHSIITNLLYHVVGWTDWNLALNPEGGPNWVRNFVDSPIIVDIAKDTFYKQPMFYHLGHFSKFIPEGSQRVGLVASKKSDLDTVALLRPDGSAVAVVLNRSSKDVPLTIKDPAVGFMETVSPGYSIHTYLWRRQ
Nature of the assay: Inhibition of bovine liver beta-glucosidase at 1000 uM.

The next assay concerns Helix pomatia. The assay can be described thus: Inhibition of snail beta-mannosidase at 1000 uM.
The target of assay [5] is T3, Tissue alpha-L-fucosidase (Bos taurus) (UniProt Q2KIM0).
T3 sequence (whole entry): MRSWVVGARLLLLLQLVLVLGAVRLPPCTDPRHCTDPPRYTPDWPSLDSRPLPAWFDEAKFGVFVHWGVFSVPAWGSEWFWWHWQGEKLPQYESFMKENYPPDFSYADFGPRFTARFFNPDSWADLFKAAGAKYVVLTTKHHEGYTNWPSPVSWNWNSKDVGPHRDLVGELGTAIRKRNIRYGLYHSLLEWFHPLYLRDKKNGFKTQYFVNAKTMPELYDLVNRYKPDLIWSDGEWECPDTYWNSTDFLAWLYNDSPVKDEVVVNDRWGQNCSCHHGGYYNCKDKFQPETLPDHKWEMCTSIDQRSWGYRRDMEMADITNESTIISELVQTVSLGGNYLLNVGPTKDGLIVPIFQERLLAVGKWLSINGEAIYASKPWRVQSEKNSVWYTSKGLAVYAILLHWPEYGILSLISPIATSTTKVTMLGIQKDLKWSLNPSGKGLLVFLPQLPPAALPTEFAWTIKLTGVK
The assay can be described thus: Inhibition of bovine alpha-L-fucosidase at 1000 uM.

The next assay relates to Escherichia coli. The assay can be described thus: Inhibition of Escherichia coli beta-glucuronidase at 1000 uM.
Assay [6] can be described thus: Inhibition of Penicillium decumbens alpha-L-rhamnosidase.
For a further assay, the system named is Oryza sativa. The assay can be described thus: Inhibition of rice alpha-glucosidase at 1000 uM.
Assay [7] in a line: Inhibition of rhizopus amyloglucosidase.
Another assay concerns Saccharomyces cerevisiae. Nature of the assay: Inhibition of yeast alpha-glucosidase at 1000 uM.
The species named for assay [8] is Rattus norvegicus. Nature of the assay: Inhibition of rat intestinal alpha-glucosidase at 1000 uM.
Assay [9] addresses T4, Beta-glucuronidase (Bos taurus) (UniProt A3KMY8).
T4 sequence (whole entry): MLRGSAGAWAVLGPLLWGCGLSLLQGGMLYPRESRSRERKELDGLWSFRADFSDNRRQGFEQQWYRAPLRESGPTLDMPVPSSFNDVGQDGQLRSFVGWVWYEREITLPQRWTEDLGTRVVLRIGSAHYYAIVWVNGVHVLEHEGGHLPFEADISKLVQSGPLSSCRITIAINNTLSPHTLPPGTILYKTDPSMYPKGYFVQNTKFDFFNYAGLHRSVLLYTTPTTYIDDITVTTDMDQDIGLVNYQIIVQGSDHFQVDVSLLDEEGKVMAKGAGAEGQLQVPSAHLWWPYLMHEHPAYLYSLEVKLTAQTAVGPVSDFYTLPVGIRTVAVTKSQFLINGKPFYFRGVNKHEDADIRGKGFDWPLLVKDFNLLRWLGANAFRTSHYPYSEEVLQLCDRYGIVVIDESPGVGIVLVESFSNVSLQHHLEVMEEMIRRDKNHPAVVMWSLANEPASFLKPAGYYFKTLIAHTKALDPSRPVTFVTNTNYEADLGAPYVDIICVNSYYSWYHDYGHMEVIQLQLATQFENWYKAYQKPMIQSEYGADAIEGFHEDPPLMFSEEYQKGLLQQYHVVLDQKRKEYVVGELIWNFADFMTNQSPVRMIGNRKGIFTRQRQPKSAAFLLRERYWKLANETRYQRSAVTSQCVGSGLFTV
Nature of the assay: Inhibition of bovine liver beta-glucuronidase at 1000 uM.

Assay [10] has as its target T5, Beta-galactosidase (Bos taurus) (UniProt Q58D55).
T5 sequence (whole entry): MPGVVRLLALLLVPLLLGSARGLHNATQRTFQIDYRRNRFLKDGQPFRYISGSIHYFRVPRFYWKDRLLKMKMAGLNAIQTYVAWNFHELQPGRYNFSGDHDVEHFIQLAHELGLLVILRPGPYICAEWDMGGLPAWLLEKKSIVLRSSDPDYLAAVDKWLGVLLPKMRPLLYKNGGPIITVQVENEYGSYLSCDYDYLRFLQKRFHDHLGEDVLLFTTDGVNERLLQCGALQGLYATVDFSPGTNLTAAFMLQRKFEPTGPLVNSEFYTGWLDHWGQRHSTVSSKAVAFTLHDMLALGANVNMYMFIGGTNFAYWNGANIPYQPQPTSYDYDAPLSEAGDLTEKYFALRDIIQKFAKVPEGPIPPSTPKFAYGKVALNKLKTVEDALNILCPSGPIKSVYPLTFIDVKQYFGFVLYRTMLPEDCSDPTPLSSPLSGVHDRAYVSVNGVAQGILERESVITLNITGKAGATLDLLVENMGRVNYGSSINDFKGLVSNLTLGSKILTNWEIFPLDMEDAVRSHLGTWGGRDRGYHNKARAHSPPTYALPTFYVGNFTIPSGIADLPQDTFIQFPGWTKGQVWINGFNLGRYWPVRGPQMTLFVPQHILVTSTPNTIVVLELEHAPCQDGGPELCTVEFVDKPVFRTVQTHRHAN
Nature of the assay: Inhibition of bovine liver beta-galactosidase at 1000 uM.

The subject of the next assay is Coffea. The assay can be described thus: Inhibition of coffee beans alpha-galactosidase at 1000 uM.
Another assay concerns Prunus dulcis. The assay can be described thus: Inhibition of almond beta-glucosidase at 1000 uM.
Assay [11] can be described thus: Inhibition of rat beta-galactosidase.
The target in assay [12] is T6, Alpha-glucosidase (Aspergillus niger) (UniProt P56526).
T6 sequence (whole entry): T1 sequence (P56526 whole entry)
Nature of the assay: Inhibition of Aspergillus niger alpha-glucosidase at 1000 uM.

In a further assay the test system is Penicillium decumbens. Nature of the assay: Inhibition of Penicillium decumbens alpha-L-rhamnosidase at 1000 uM.
Assay [13] deals with Aspergillus niger. Nature of the assay: Inhibition of Aspergillus niger amyloglucosidase at 1000 uM.
A short description of assay [14]: Inhibition of almond beta-glucosidase. Details: species or system Prunus dulcis.
Assay [15] can be described thus: Inhibition of rat intestinal alpha-glucosidase.

By IC50 is commonly meant the concentration needed to halve the response being measured. Read a high IC50 as weaker potency in that assay. By inhibition is commonly meant the percentage by which the read-out fell short of the control. A higher inhibition goes with a strong effect.

In turn, `O[C@@H]1[C@H](O)[C@H]2[C@@H](O)CCN2C[C@H]1O` yielded an IC50 in [1] of 8 µM.
Regarding `O[C@H]1CCCN2C[C@H](O)[C@H]12`, the inhibition in the assay on Aspergillus niger [2] is 0%; in the assay listed under Rattus norvegicus [3], 32.2%; in the assay listed under Sus scrofa it was 1%; in [4] it was 9.7%; in the assay with Helix pomatia, 0%; in [5], 0%. Also, the inhibition in the assay with Escherichia coli was 13.2%; in the assay on Oryza sativa, 0%; in the assay on Saccharomyces cerevisiae, 1.6%; in the assay listed under Rattus norvegicus [8] it was 14.3%; in assay [9], 0%; in assay [10] it was 14%. The inhibition amounted to 8.4% in the assay on Coffea and 0% in the assay with Prunus dulcis. For the same molecule, the IC50 stood at 307 µM on Alpha-glucosidase, 117 µM in [6], 930 µM in assay [1] and 243 µM in assay [7].
For the molecule `O[C@@H]1[C@H](O)[C@H]2[C@@H](O)CN2C[C@H]1O` [(3R,4S,5R,6R,7S)-3,4,5,7-TETRAHYDROXYCONIDINE], the inhibition came to 1.8% in the assay on Aspergillus niger [2]; 9% in the assay filed under Sus scrofa; 18.9% in assay [4]; 0% with Helix pomatia; 2% in assay [5]; 0% with Escherichia coli. The inhibition with Oryza sativa was determined as 13.8%; in assay [12], 47.3%; with Saccharomyces cerevisiae, 0%; in the assay filed under Rattus norvegicus [8] it was 30.3%; with Penicillium decumbens, 2%; in assay [9], 7.8%. Further, the inhibition amounted to 31.3% in the assay with Aspergillus niger [13], 43.4% in assay [10], 3.5% in the assay on Coffea and 31.1% in the assay on Prunus dulcis. For the same molecule, the half-inhibitory concentration (IC50) in [11] is 418 µM; in [7], 532 µM.
`O[C@H]1[C@H](O)[C@@H](O)CN2CC[C@H](O)[C@H]12` [CASTANOSPERMINE]: in assay [1], the IC50 worked out at 8 µM.
Take `OC[C@H](O)[C@@H]1NC[C@@H]1O`: the inhibition was 0.4% with Aspergillus niger [2]; 5.8% in the assay filed under Sus scrofa; 0% with Helix pomatia; 4.6% in assay [5]; 0% with Escherichia coli; 12.1% in the assay on Oryza sativa. The inhibition in the assay on Saccharomyces cerevisiae came out at 16%; in [9] it was 7.4%; in [10], 25.2%; with Coffea, 7.6%. The half-maximal inhibitory concentration (IC50) against Alpha-glucosidase is 39 µM; in assay [14], 347 µM; in [11], 70 µM; in assay [6] it was 634 µM; in assay [1] it was 105 µM; in assay [7] it was 19 µM. The molecule also had an IC50 in [15] of 607 µM.
As for `O[C@H]1[C@H](O)CN2CCCC[C@H]12` [(-)-LENTIGINOSINE], the IC50 in [1] is 32 µM.
